Results: patent US20230382925A1, “MODULATORS OF CYSTIC FIBROSIS TRANSMEMBRANE CONDUCTANCE REGULATOR” (VERTEX PHARMACEUTICALS INCORPORATED, priority 2020, published 2023)
Read-outs that look alike come from different tables or passages of the source.

Biological target: CFTR (Homo sapiens, UniProt P13569)
Assay: Membrane Potential Dye, Enteroid Assay B
Type: cell-based
Procedure, shortened: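 Human intestinal enteroid cells exposed to compound 18-24 h at 37 °C, then loaded with methyl oxonol membrane-potential dye plus CaCC blockers. Chloride transport triggered in chloride-free buffer with 10 μM forskolin, 100 μM IBMX, 300 nM Compound III; fluorescence read 15 min, expressed as % of triple-corrector/potentiator combination control.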

[1] = Table 10, read-out: Ent. B EC50

CFTR, sequence (P13569 with tags, fused parts or gaps DEL508-508): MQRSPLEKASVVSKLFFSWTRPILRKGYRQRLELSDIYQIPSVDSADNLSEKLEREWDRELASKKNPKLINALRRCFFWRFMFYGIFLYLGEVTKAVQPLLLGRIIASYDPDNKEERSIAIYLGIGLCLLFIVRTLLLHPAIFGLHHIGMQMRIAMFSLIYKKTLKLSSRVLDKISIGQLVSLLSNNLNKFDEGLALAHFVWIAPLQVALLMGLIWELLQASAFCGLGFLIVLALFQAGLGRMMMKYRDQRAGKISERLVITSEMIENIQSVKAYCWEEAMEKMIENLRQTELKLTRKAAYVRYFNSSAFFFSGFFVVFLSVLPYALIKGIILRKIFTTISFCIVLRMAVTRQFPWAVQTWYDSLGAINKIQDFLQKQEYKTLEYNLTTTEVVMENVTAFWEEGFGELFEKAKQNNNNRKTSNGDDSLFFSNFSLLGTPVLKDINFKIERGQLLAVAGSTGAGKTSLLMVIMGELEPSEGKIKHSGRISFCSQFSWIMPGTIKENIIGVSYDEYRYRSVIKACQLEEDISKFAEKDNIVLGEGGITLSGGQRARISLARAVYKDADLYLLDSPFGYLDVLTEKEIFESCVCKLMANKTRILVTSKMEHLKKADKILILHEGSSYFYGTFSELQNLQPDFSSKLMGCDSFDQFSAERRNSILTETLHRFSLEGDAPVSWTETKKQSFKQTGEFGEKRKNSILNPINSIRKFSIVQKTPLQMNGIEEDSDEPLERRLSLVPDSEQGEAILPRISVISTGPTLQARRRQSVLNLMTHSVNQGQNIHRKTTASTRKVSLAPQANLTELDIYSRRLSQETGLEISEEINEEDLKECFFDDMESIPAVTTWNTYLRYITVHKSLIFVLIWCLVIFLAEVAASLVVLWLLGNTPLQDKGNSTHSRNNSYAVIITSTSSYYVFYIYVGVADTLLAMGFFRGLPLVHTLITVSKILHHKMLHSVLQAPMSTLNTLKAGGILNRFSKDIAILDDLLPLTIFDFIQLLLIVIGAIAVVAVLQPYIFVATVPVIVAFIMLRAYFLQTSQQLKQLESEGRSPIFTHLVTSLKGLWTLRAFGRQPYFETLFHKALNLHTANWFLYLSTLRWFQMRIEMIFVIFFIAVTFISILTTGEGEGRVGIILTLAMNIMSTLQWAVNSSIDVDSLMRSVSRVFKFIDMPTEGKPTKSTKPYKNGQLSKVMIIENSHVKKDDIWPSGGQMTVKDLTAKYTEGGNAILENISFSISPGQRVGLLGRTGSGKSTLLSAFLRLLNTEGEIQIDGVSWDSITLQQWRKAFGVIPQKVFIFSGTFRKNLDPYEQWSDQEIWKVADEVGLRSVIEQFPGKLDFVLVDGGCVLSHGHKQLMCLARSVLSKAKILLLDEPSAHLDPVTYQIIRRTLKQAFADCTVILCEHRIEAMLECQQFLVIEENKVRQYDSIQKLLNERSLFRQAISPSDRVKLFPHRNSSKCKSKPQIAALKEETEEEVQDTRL

Structure (SMILES)	Ent. B Max Activity (%) (Table 10)	EC50 [1] [nM]	Ent. B Max Activity (%) (Table 9)	EC50 (Table 9, read-out: Ent. B EC50) [nM]	other results
Cc1cccc(C)c1-c1cc2nc(n1)NS(=O)(=O)c1cccc(c1)C(=O)N(C1CC3(COC(=O)N3C)C1)[C@H](CC(C)(C)C)CO2 (single isomer, unassigned) [Compound 174]	++ (++ is 30-60%)	< 1000			
Cc1cccc(C)c1-c1cc2nc(n1)NS(=O)(=O)c1cccc(c1)C(=O)N(C1CC3(COC(=O)N3)C1)[C@H](CC(C)(C)C)CO2 (single isomer, unassigned) [Compound 175]	++ (++ is 30-60%)	< 1000			
Cc1cccc(C)c1-c1cc2nc(n1)NS(=O)(=O)c1cccc(c1)C(=O)N(C1CC3(COC(=O)N3)C1)[C@H](CC(C)(C)C)CO2 (single isomer, unassigned) [Compound 176]	++ (++ is 30-60%)	< 1000			
Cc1cccc(C)c1-c1cc2nc(n1)NS(=O)(=O)c1cccc(c1)C(=O)N(C1CC3(COC(=O)N3C)C1)[C@H](CC(C)(C)C)CO2 (single isomer, unassigned) [Compound 177]	++ (++ is 30-60%)	< 1000			
Cc1cccc(C)c1-c1cc2nc(n1)NS(=O)(=O)c1cccc(c1)C(=O)N(C1CC(NC(=O)OC(C)C)C1)[C@H](CC(C)(C)C(F)(F)F)CO2 (single isomer, unassigned) [Compound 192]	+++ (+++ is >60%)	< 1000			
Cc1cccc(C)c1-c1cc2nc(n1)NS(=O)(=O)c1cccc(c1)C(=O)N(C1CC(NC(=O)OC(C)(C)C)C1)[C@H](CC(C)(C)C(F)(F)F)CO2 (single isomer, unassigned) [Compound 193]			+++ (+++ is >60%)	< 1000	
Cc1cccc(C)c1-c1cc2nc(n1)NS(=O)(=O)c1cccc(c1)C(=O)N(C1CC(NC(=O)OC(C)(C)C)C1)[C@H](CC(C)(C)C(F)(F)F)CO2 (single isomer, unassigned) [Compound 194]			+++ (+++ is >60%)	< 1000	
Cc1cccc(C)c1-c1cc2nc(n1)NS(=O)(=O)c1cccc(c1)C(=O)N(C1CC(NC(=O)OC(C)C)C1)[C@H](CC(C)(C)C(F)(F)F)CO2 (single isomer, unassigned) [Compound 195]	++ (++ is 30-60%)	< 1000			
CCN(C(=O)OC)C1CC(N2C(=O)c3cccc(c3)S(=O)(=O)Nc3nc(cc(-c4c(C)cccc4C)n3)OC[C@H]2CC(C)(C)C)C1 (single isomer, unassigned) [Compound 237]	++ (++ is 30-60%)	< 1000			
CCN(C(=O)OC)C1CC(N2C(=O)c3cccc(c3)S(=O)(=O)Nc3nc(cc(-c4c(C)cccc4C)n3)OC[C@H]2CC(C)(C)C)C1 (single isomer, unassigned) [Compound 238]	++ (++ is 30-60%)	< 1000			
CCC(=O)N(C)C1CC(N2C(=O)c3cccc(c3)S(=O)(=O)Nc3nc(cc(-c4c(C)cccc4C)n3)OC[C@H]2CC(C)(C)C)C1 (single isomer, unassigned) [Compound 240]	++ (++ is 30-60%)	< 1000			
Cc1cccc(C)c1-c1cc2nc(n1)NS(=O)(=O)c1cccc(c1)C(=O)N(C1CC(NC(=O)C(C)C)C1)[C@H](CC(C)(C)C)CO2 (single isomer, unassigned) [Compound 444]			+++ (+++ is >60%)	< 1000	
CC(=O)NC1CC(N2C(=O)c3cccc(c3)S(=O)(=O)Nc3nc(cc(-c4c(C)cccc4C)n3)OC[C@H]2CC(C)(C)C)C1 (single isomer, unassigned) [Compound 448]			+++ (+++ is >60%)	< 1000	
Cc1cccc(C)c1-c1cc2nc(n1)NS(=O)(=O)c1cccc(c1)C(=O)N([C@H]1C[C@@H](OC(F)(F)F)C1)[C@H](CC1(C(F)(F)F)CC1)CO2 (stereo in doubt) [Compound 212]	++ (++ is 30-60%)	< 1000			
Cc1cccc(C)c1-c1cc2nc(n1)NS(=O)(=O)c1cccc(c1)C(=O)N(C1CC(OC(F)(F)F)C1)[C@H](CC(C)C)CO2 (stereo in doubt) [Compound 213]			+++ (+++ is >60%)	< 1000	
Cc1cccc(C)c1-c1cc2nc(n1)NS(=O)(=O)c1cccc(c1)C(=O)N(C1CC(OC(F)(F)F)C1)[C@H](CC(C)C)CO2 (stereo in doubt) [Compound 214]			+++ (+++ is >60%)	< 1000	
CCN(C(=O)OC)C1CC2(C1)CC(N1C(=O)c3cccc(c3)S(=O)(=O)Nc3nc(cc(-c4c(C)cccc4C)n3)OC[C@H]1CC(C)(C)C)C2 (stereo in doubt) [Compound 236]	++ (++ is 30-60%)	< 1000			

Structure (SMILES)	Ent. B Max Activity (%) (Table 10)	EC50 [1] [nM]	Ent. B Max Activity (%) (Table 9)	EC50 (Table 9, read-out: Ent. B EC50) [nM]	other results
CCC(=O)N(C)C1CC(N2C(=O)c3cccc(c3)S(=O)(=O)Nc3nc(cc(-c4c(C)cccc4C)n3)OC[C@H]2CC(C)(C)C)C1 (stereo in doubt) [Compound 239]	++ (++ is 30-60%)	< 1000			
COC(=O)N(C)C1(C)CC(N2C(=O)c3cccc(c3)S(=O)(=O)Nc3nc(cc(-c4c(C)cccc4C)n3)OC[C@H]2CC(C)(C)C)C1 (stereo in doubt) [Compound 241]	++ (++ is 30-60%)	< 1000			
Cc1cccc(C)c1-c1cc2nc(n1)NS(=O)(=O)c1cccc(c1)C(=O)N([C@H]1C[C@](C)(NC(=O)OC(C)C)C1)[C@H](CC(C)(C)C)CO2 (stereo in doubt) [Compound 244]	++ (++ is 30-60%)	< 1000			
Cc1cccc(C)c1-c1cc2nc(n1)NS(=O)(=O)c1cccc(c1)C(=O)N([C@H]1C[C@](C)(NC(=O)OC(C)C)C1)[C@H](CC(C)(C)C)CO2 (stereo in doubt) [Compound 245]	+++ (+++ is >60%)	< 1000			
Cc1cccc(C)c1-c1cc2nc(n1)NS(=O)(=O)c1cccc(c1)C(=O)N([C@H]1C[C@@H](N3CCOC3=O)C1)[C@H](CC(C)(C)C)CO2 (stereo in doubt) [Compound 251]	+++ (+++ is >60%)	< 1000			
Cc1cccc(C)c1-c1cc2nc(n1)NS(=O)(=O)c1cccc(c1)C(=O)N([C@H]1C[C@@H](N(CCO)CCO)C1)[C@H](CC(C)(C)C)CO2 (stereo in doubt) [Compound 252]	+ (+ is <300%)	< 1000			
COC(=O)N(C)[C@H]1C[C@@]2(C1)C[C@H](N1C(=O)c3cccc(c3)S(=O)(=O)Nc3nc(cc(-c4c(C)cccc4C)n3)OC[C@H]1CC1(C(F)(F)F)CC1)C2 (stereo in doubt) [Compound 259]			+++ (+++ is >60%)	< 1000	
COC(=O)N(C)[C@H]1C[C@]2(C1)C[C@H](N1C(=O)c3cccc(c3)S(=O)(=O)Nc3nc(cc(-c4c(C)cccc4C)n3)OC[C@H]1CC1(C(F)(F)F)CC1)C2 (stereo in doubt) [Compound 260]			+++ (+++ is >60%)	< 1000	
COC(=O)NC[C@H]1C[C@@H](N2C(=O)c3cccc(c3)S(=O)(=O)Nc3nc(cc(-c4c(C)cccc4C)n3)OC[C@H]2CC(C)C)C1 (stereo in doubt) [Compound 264]			+++ (+++ is >60%)	< 1000	
COCCN1CC(N2C(=O)c3cccc(c3)S(=O)(=O)Nc3nc(cc(-c4c(C)cccc4C)n3)OC[C@H]2CC(C)C)CC1(C)C (stereo in doubt) [Compound 277]			+++ (+++ is >60%)	1000 to 3000	
CNC1CC2(C1)CC(N1C(=O)c3cccc(c3)S(=O)(=O)Nc3nc(cc(-c4c(C)cccc4C)n3)OC[C@H]1CC(C)C)C2 (stereo in doubt) [Compound 282]			+++ (+++ is >60%)	< 1000	
COCCNC1CC2(C1)CC(N1C(=O)c3cccc(c3)S(=O)(=O)Nc3nc(cc(-c4c(C)cccc4C)n3)OC[C@H]1CC(C)C)C2 (stereo in doubt) [Compound 287]			+++ (+++ is >60%)	< 1000	
COCCNC1CC2(C1)CC(N1C(=O)c3cccc(c3)S(=O)(=O)Nc3nc(cc(-c4c(C)cccc4C)n3)OC[C@H]1CC(C)C)C2 (stereo in doubt) [Compound 288]			+++ (+++ is >60%)	< 1000	
Cc1cccc(C)c1-c1cc2nc(n1)NS(=O)(=O)c1cccc(c1)C(=O)N(C1CC3(CC(N)C3)C1)[C@H](CC(C)C)CO2 (stereo in doubt) [Compound 291]			+++ (+++ is >60%)	< 1000	
Cc1cccc(C)c1-c1cc2nc(n1)NS(=O)(=O)c1cccc(c1)C(=O)N(C1CC3(CC(N)C3)C1)[C@H](CC(C)C)CO2 (stereo in doubt) [Compound 292]			+++ (+++ is >60%)	< 1000	
COCCN1CCC(N2C(=O)c3cccc(c3)S(=O)(=O)Nc3nc(cc(-c4c(C)cccc4C)n3)OC[C@H]2CC(C)C)C1 (stereo in doubt) [Compound 294]					Ent. B Max Activity (%): +++ (+++ is >60%); EC50 (read-out: Ent. B EC50): < 1000 nM
Cc1cccc(C)c1-c1cc2nc(n1)NS(=O)(=O)c1cccc(c1)C(=O)N([C@H]1CCN(C)C1)[C@H](CC(C)C)CO2 (stereo in doubt) [Compound 295]					Ent. B Max Activity (%): +++ (+++ is >60%); EC50 (read-out: Ent. B EC50): < 1000 nM
